The conditions of data set [1]: 9 mg/kg/day nicotine salt (3.16 mg/kg, free base) by osmotic mini-pump; cited from earlier work.
The test system of data set [2] is male Wistar rats. Briefly: ICSS thresholds during spontaneous nicotine withdrawal. Type of data set: in vivo, rat. The text has this:
(§1) Animals were trained to respond according to a modification of the discrete-trial current-threshold procedure of Kornetsky and Esposito (Fed Proc 38:2473-2476, 1979), which has been described in detail previously (Markou and Koob, 1992 Physiol Behav 51:111-119). Briefly, a trial was initiated by the delivery of a non-contingent electrical stimulus. […] The current intensity delivered was adjusted for each animal and typically ranged from 50 to 200 μA. […] After a variable inter-trial interval (7.5-12.5 sec, average of 10 sec), another trial was initiated with the delivery of a non-contingent electrical stimulus. […] Responding during the inter-trial interval delayed the onset of the next trial by 12.5 sec. Current levels were varied in alternating descending and ascending series. A set of three trials was presented for each current intensity. Current intensities were altered in 5 μA steps. In each testing session, four alternating descending-ascending series were presented. […] The overall threshold of the session was defined as the mean of the thresholds for the four individual series. Each testing session was ˜30 min in duration. The latency between the onset of the non-contingent stimulus and a positive response was recorded as the response latency. The response latency for each test session was defined as the mean response latency of all trials during which a positive response occurred. After establishment of stable ICSS reward thresholds, rats were tested in the ICSS procedure once daily except for the spontaneous nicotine withdrawal experiment when rats were tested at time-points according to the experimental design.
Osmotic mini-pumps were surgically removed from nicotine-treated rats (n=15) (defined as rats having been prepared with mini-pumps delivering 3.16 mg/kg/day nicotine free-base for at least seven days) or corresponding control rats (n=17; rats prepared with vehicle-containing mini-pumps). All rats were then tested in the ICSS procedure at 12, 18, 24, 36, 48 and 72 hr after the removal of osmotic mini-pumps. These time points were chosen based on the time course of threshold elevations previously observed during spontaneous nicotine withdrawal after removal of nicotine-delivering osmotic mini-pumps (Harrison et al., 2001, Neuropsychopharmacology 25:55-71; K.L.). […] Thirty min before being tested at the 18 h time-point, one group of nicotine withdrawing and one group of control rats were injected with LY341495 (1 mg/kg); the remaining rats were injected with vehicle.

Another data set relates to Wistar rats. Briefly: Nicotine self-administration under a fixed ratio schedule (LY341495, LY341495 and MPEP). The following applies: MPEP 1 mg/kg alone.
A further data set deals with drug-naïve rats. The following applies: cited from earlier work.
Data set [3] has as its system male Wistar rats.
Excerpt: as §1
Systemic administration experiments. These experiments investigated whether nicotine withdrawal, as measured by elevations in ICSS thresholds, could be precipitated in nicotine-treated rats by systemic administration of an agonist at mGluII receptors (LY314582), an agonist at GABAB receptors (CGP44532), or antagonists at mGlu5 (MPEP), NMDA (MK-801) or AMPA/Kainate (NBQX) glutamate receptors. For each drug tested, rats were trained in the ICSS paradigm until stable baseline responding was achieved, defined as ≦10% variation in thresholds for 3 consecutive days and requiring approximately 14 days of daily testing. […] One group was then prepared with subcutaneous osmotic mini-pumps delivering vehicle and the second group with mini-pumps delivering 9 mg/kg/day nicotine hydrogen tartrate (3.16 mg/kg/day nicotine free base). There was a minimum seven-day interval after mini-pump implantation, during which ICSS reward thresholds continued to be measured daily, before the effect of any systemically administered drug on reward thresholds was evaluated.

Setting [4] is: MPEP 0.01 mg/kg i.p., Nicotine-treated rats.
[5] abbreviates: MPEP 0.01 mg/kg i.p., Vehicle-treated rats.
Where [6] appears, read: MPEP 0.05 mg/kg i.p., Nicotine-treated rats.
The mark [7] stands for this setting: MPEP 0.05 mg/kg i.p., Vehicle-treated rats.
The mark [8] stands for this setting: MPEP 0.1 mg/kg i.p., Nicotine-treated rats.
Where [9] appears, read: MPEP 0.1 mg/kg i.p., Vehicle-treated rats.
Setting [10] is: MPEP 0.5 mg/kg i.p., Nicotine-treated rats.
The mark [11] stands for this setting: MPEP 0.5 mg/kg i.p., Vehicle-treated rats.
[12] abbreviates: MPEP 1 mg/kg i.p., Nicotine-treated rats.
[13] abbreviates: MPEP 1 mg/kg i.p., Vehicle-treated rats.
Setting [14] is: MPEP 2 mg/kg i.p., Nicotine-treated rats.
Setting [15] is: MPEP 2 mg/kg i.p., Vehicle-treated rats.
Where [16] appears, read: MPEP 3 mg/kg i.p., Nicotine-treated rats.
The mark [17] stands for this setting: MPEP 3 mg/kg i.p., Vehicle-treated rats.

Structures are written as SMILES. “And” between values parts separate entries of the source, which are not always exact repeats. Equal values may be shown once. Read-outs that look alike come from different tables or passages of the source. A value given as a limit tells only on which side of the number the result lay.

As for `CN1CCCC1c1cccnc1` (single isomer, unassigned; (-)) [nicotine, (−)-1-methyl-2-(3-pyridyl) pyrrolidine], the “stable plasma nicotine levels” value in data set [1] was roughly 44 ng/mL. In the data set on male Wistar rats [2] (12 h after removal of mini-pumps delivering 3.16 mg/kg/day nicotine free-base, two groups before treatment (n=8, n=7)), the “ICSS reward threshold elevation” value was 117.67±3.1% and 119.93±3.5%. Besides, in the data set with male Wistar rats [2] (withdrawal from chronic nicotine treatment), the ICSS Thresholds result is on record as “produced robust ICSS threshold elevations compared to control rats”.
With `Cc1cccc(C#Cc2ccccc2)n1` [MPEP, 2-methyl-6-(phenylethynyl)-pyridine], the “cocaine or nicotine self-administration” value in the data set on Wistar rats is “has no effects on cocaine or nicotine self-administration”. Further, in the data set with drug-naïve rats (0.25 mg/kg nicotine (Harrison et al. 2002)), the “reward-lowering effect of nicotine in a brain reward stimulation procedure” value is “had no effect on the reward-lowering effect of 0.25 mg/kg nicotine”. For the same molecule, in the data set with drug-naïve rats (previous studies (Harrison et al., 2002; Macey et al., 2001)), the “dose that elevated ICSS thresholds in drug-naïve rats” value was no less than 3 mg/kg. In addition, the “ICSS Thresholds” value in the data set on male Wistar rats [3] (setting [4]) was 93.86 ± 6.0 percentage of baseline; with male Wistar rats [3] (setting [5]), 98.75 ± 3.5 percentage of baseline; in the data set on male Wistar rats [3] (setting [6]), 94.11 ± 2.6 percentage of baseline; in the data set on male Wistar rats [3] (setting [7]) it was 101.27 ± 4.1 percentage of baseline; in the data set on male Wistar rats [3] (setting [8]), 103.84 ± 1.2 percentage of baseline; in the data set with male Wistar rats [3] (setting [9]), 105.13 ± 3.2 percentage of baseline. In addition, the “ICSS Thresholds” value in the data set with male Wistar rats [3] (setting [10]) is 104.02 ± 2.2 percentage of baseline; in the data set with male Wistar rats [3] (setting [11]), 103.01 ± 2.7 percentage of baseline; in the data set on male Wistar rats [3] (setting [12]), 105.81 ± 3.3 percentage of baseline; with male Wistar rats [3] (setting [13]) it was 103.70 ± 3.0 percentage of baseline; with male Wistar rats [3] (setting [14]), 121.17 ± 6.2 percentage of baseline; in the data set on male Wistar rats [3] (setting [15]), 111.21 ± 2.3 percentage of baseline. The “ICSS Thresholds” value is recorded as 119.11 ± 5.5 percentage of baseline in the data set on male Wistar rats [3] (setting [16]) and 111.52 ± 4.8 percentage of baseline with male Wistar rats [3] (setting [17]). The “ICSS response Latencies” value with male Wistar rats [3] (setting [4]) is 101.50 percentage of baseline; in the data set on male Wistar rats [3] (setting [5]), 99.75 ± 3.4 percentage of baseline; with male Wistar rats [3] (setting [6]), 103.48 percentage of baseline; in the data set with male Wistar rats [3] (setting [7]) it was 104.87 ± 3.3 percentage of baseline; in the data set with male Wistar rats [3] (setting [8]), 102.54 percentage of baseline; in the data set on male Wistar rats [3] (setting [9]) it was 105.13 ± 4.8 percentage of baseline. Further, the “ICSS response Latencies” value with male Wistar rats [3] (setting [10]) is on record as 99.47 percentage of baseline; in the data set with male Wistar rats [3] (setting [11]), 103.20 ± 4.4 percentage of baseline; in the data set with male Wistar rats [3] (setting [12]), 99.12 percentage of baseline; in the data set on male Wistar rats [3] (setting [13]), 100.72 ± 2.1 percentage of baseline; in the data set on male Wistar rats [3] (setting [14]), 101.31 percentage of baseline; in the data set on male Wistar rats [3] (setting [15]) it was 107.60 ± 2.6 percentage of baseline. The “ICSS response Latencies” value was 102.22 percentage of baseline in the data set on male Wistar rats [3] (setting [16]); 103.58 ± 2.3 percentage of baseline in the data set on male Wistar rats [3] (setting [17]); “had no effect on response latencies” in the data set with male Wistar rats [3] (MPEP 0.5-3 mg/kg, either group). Further, the ICSS reward thresholds result with male Wistar rats [3] (MPEP 0.01-0.1 mg/kg, nicotine-treated or control rats) is “did not affect reward thresholds”; with male Wistar rats [3] (MPEP 0.5-3 mg/kg), “elevated reward thresholds in nicotine-treated and control rats”.
